The values that follow come from US20240025906A1 (NEURON23, INC., priority 2022, published 2024).

Assay [1] relates to JAK1/TYK2 pSTAT5 (Tyr694/699) in THP-1 cell line. As to the kind of experiment: IFNa-stimulated JAK1/TYK2 pSTAT5 (Tyr694/699) inhibition cellular assay, AlphaLISA. Type of assay: cell-based. The settings on record: Homo sapiens; THP-1 cells, IFNa-stimulated, AlphaLISA (Assay B); read-out: Cellular_THP1_IFNa-pSTATS_TYK2. An outline of the steps: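 An eight-point 6-fold titration of compound (0.04–10000 nM final) is given to THP-1 cells for 1 h before 30 min of IFNa exposure. Phospho-STAT5 is read by AlphaLISA at 615 nm. IC50 values are derived by logistic regression with bottom set to 0 and Hill slope set to −1.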

Assay [2] has as its target T1, TYK2 JH2 (Homo sapiens, UniProt P29597).
T1 construct: purchased DiscoverX (KINOMEscan KdELECT service); host or cells: E. coli BL21-derived (T7 phage display) or HEK-293
Nature of the assay: TYK2 JH2 binding assay (KINOMEscan KdELECT competitive binding). Conditions: TYK2 JH2 domain, DiscoverX KINOMEscan KdELECT (Assay A); read-out: Biochemical TYK2_DiscoverX_JH2_BND_Kd. An outline of the steps:
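The assay measures displacement of DNA- or phage-tagged TYK2 pseudokinase domain from an affinity resin; compound binding lowers the amount captured, read by qPCR. Incubation lasts 1 h at room temperature.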

T1 sequence (P29597 589-875 limits assumed): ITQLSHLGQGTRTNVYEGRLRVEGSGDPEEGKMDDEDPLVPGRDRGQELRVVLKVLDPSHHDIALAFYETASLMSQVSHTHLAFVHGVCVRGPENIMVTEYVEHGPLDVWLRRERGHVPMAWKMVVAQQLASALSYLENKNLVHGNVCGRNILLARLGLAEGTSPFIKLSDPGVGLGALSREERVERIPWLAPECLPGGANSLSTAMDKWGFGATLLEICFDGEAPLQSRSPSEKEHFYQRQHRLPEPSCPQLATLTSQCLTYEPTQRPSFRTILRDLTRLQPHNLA

With `CCNc1ncc(-c2nc3ccc(N4CCOCC4)cn3n2)c2cc(NC(=O)C3CC3)ncc12` [Example 514, N-(8-(ethylamino)-5-(6-morpholino-[1,2,4]triazolo[1,5-a]pyridin-2-yl)-2,7-naphthyridin-3-yl)cyclopropanecarboxamide], the IC50 in assay [1] is no more than 500 nM. Further, the Kd in assay [2] was no more than 100 nM.
For `CCNc1ncc(-c2nc3ccc(N4CCO[C@@H](C)C4)cn3n2)c2cc(NC(=O)C3CC3)ncc12` [Example 515, (S)-N-(8-(ethylamino)-5-(6-(2-methylmorpholino)-[1,2,4]triazolo[1,5-a]pyridin-2-yl)-2,7-naphthyridin-3-yl)cyclopropanecarboxamide], the IC50 in assay [1] is no more than 500 nM. Also, in assay [2], the Kd is no more than 100 nM.
The corresponding values for `CCNc1ncc(-c2nc3ccc(OC)cn3n2)c2cc(NC(=O)C3CC3)ncc12` [Example 516, N-(8-(ethylamino)-5-(6-methoxy-[1,2,4]triazolo[1,5-a]pyridin-2-yl)-2,7-naphthyridin-3-yl)cyclopropanecarboxamide] are no more than 500 nM and no more than 100 nM.
The corresponding values for `CCNc1ncc(-c2nc3ccc(C)cn3n2)c2cc(NC(=O)C3CC3)ncc12` [Example 517, N-(8-(ethylamino)-5-(6-methyl-[1,2,4]triazolo[1,5-a]pyridin-2-yl)-2,7-naphthyridin-3-yl)cyclopropanecarboxamide] are no more than 500 nM and no more than 100 nM.
For `O=C(Nc1cc2c(-c3nc4ccc(N5CCOCC5)cn4n3)cnc(NC3CC3)c2cn1)C1CC1` [Example 518, N-(8-(cyclopropylamino)-5-(6-morpholino-[1,2,4]triazolo[1,5-a]pyridin-2-yl)-2,7-naphthyridin-3-yl)cyclopropanecarboxamide] the same measures were no more than 500 nM and no more than 100 nM.
As for `O=C(Nc1cc2c(-c3nc4ccccn4n3)cnc(NC3CC3)c2cn1)C1CC1` [Example 519, N-(5-([1,2,4]triazolo[1,5-a]pyridin-2-yl)-8-(cyclopropylamino)-2,7-naphthyridin-3-yl)cyclopropanecarboxamide], in assay [1], the IC50 was greater than 500 nM. The Kd in assay [2] was no more than 100 nM.
For `CNc1ncc(-c2nc3ccc(OC)cn3n2)c2cc(NC(=O)[C@H]3C[C@H]3C)ncc12` [Example 520, (1S,2R)—N-(5-(6-methoxy-[1,2,4]triazolo[1,5-a]pyridin-2-yl)-8-(methylamino)-2,7-naphthyridin-3-yl)-2-methylcyclopropane-1-carboxamide], the IC50 in assay [1] was no more than 500 nM. In addition, the Kd in assay [2] was no more than 100 nM.
For the molecule `CNc1ncc(-c2nc3ccc(OC)cn3n2)c2cc(Nc3ccccn3)ncc12` [Example 523, 4-(6-methoxy-[1,2,4]triazolo[1,5-a]pyridin-2-yl)-N^1-methyl-N^6-(pyridin-2-yl)-2,7-naphthyridine-1,6-diamine], the IC50 in assay [1] was no more than 500 nM. Further, the Kd in assay [2] was no more than 100 nM.
Regarding `CNc1ncc(-c2nc3ccc(OC)cn3n2)c2cc(Nc3cccc(OC)n3)ncc12` [Example 524, 4-(6-methoxy-[1,2,4]triazolo[1,5-a]pyridin-2-yl)-N^6-(6-methoxypyridin-2-yl)-N^1-methyl-2,7-naphthyridine-1,6-diamine], the IC50 in assay [1] was no more than 500 nM. Also, in assay [2], the Kd is no more than 100 nM.
For `CNc1ncc(-c2nc3ccc(N4CCOCC4)cn3n2)c2cc(NC(=O)[C@H]3C[C@H]3C)ncc12` [Example 525, (1S,2R)-2-methyl-N-(8-(methylamino)-5-(6-morpholino-[1,2,4]triazolo[1,5-a]pyridin-2-yl)-2,7-naphthyridin-3-yl)cyclopropane-1-carboxamide] the same measures were no more than 500 nM and no more than 100 nM.
`CNc1ncc(-c2nc3ccc(N4CCOCC4)cn3n2)c2cc(NC(=O)C3(C)CC3)ncc12` [Example 526, 1-methyl-N-(8-(methylamino)-5-(6-morpholino-[1,2,4]triazolo[1,5-a]pyridin-2-yl)-2,7-naphthyridin-3-yl)cycloproapne-1-carboxamide]: the IC50 in assay [1] was no more than 500 nM. Also, the Kd in assay [2] was no more than 100 nM.
